Data as given in patent US20150174068A1, “Apparatus, Composition, and Related Methods for Transdermal Delivery of Active Ingredients” (CURE IP HOLDINGS, LLC, priority 2011, published 2015).
Where two headings read alike, the source gives them in different places.

Tests used:
[1] = human, pH 7.4
[2] = In vitro transdermal caffeine delivery, Franz diffusion cells, excised human epidermis; type: in vitro ADME; settings: after application of the formulations
Experimental: Pre-clinical selection of topical formulations was performed using an in-vitro penetration study through human epidermal membrane, which assesses the percutaneous absorption profiles of applied drugs. The method is based on the use of excised human skin as a membrane in a diffusion system that simulates in-vivo skin conditions. By analyzing the amount of the drug reaching the receptor solution, the penetration profile of the drug in the skin can be assessed and used as a tool to determine the feasibility of formulations for subsequent development. Embodiments of the transdermal compositions were tested in an in vitro penetration study through human epidermis as a testing membrane to simulate topical drug delivery. In particular, excised human epidermis was utilized to assess the penetration profiles of caffeine. Two transdermal compositions were tested: Formulation A and Formulation B. […] Formulation A was tested with and without occlusion. Parafilm was applied for occlusion tests, and the samples were kept under occlusion during the period of the study. […] The materials for the assays were: […] Formulation A; and Formulation B. […] Therefore, each formulation contained radioactive caffeine of 50 μCi/mL. The mixtures were stored at a 4° C. refrigerator after preparation. […] The amount of radioactive caffeine was analyzed from the receptor fluid samples. […]

Compound	amount of active ingredient that penetrated the epidermis [1]	amount of active ingredient that penetrated the epidermis ([1]; 5 %)	time to penetration of caffeine through the epidermis into the receptor chamber [2] [min]
CC(=O)O[C@H]1C(=O)[C@@]2(C)[C@H]([C@H](OC(=O)c3ccccc3)[C@]3(O)C[C@H](OC(=O)[C@H](O)[C@@H](NC(=O)c4ccccc4)c4ccccc4)C(C)=C1C3(C)C)[C@]1(OC(C)=O)CO[C@@H]1C[C@@H]2O [Paclitaxel, paclitaxel]	approximately 0.5%		
Cn1c(=O)c2c(ncn2C)n(C)c1=O [caffeine]	greater than 1%	Greater than 3%	≤ 3
Nc1nc2ncc(CNc3ccc(C(=O)N[C@@H](CCC(=O)O)C(=O)O)cc3)nc2c(=O)[nH]1 [folic acid]		Approximately 1%	
C[C@]12CC[C@@H]3c4ccc(O)cc4CC[C@H]3[C@@H]1CC[C@@H]2O [estradiol]		Greater than 2%	
